Reference: patent publication US9949965B2, “Tricyclic indole Mcl-1 inhibitors and uses thereof” (priority 2014, dated 2018)
pKi: −log10 of the molar value. Read-outs that look alike come from different tables or passages of the source.

Experiments:
[1] = biological target: T1, recombinant Mcl-1 (residues 172-327) (Homo sapiens, UniProt Q07820); assay: Bak peptide binding assay: fluorescence polarization anisotropy competition (FITC-Bak BH3 peptide); details: 10 nM FITC-Bak, 14 nM Mcl-1, Ki converted from IC50
T1 construct: 14 nM recombinant Mcl-1 (residues 172-327) were added to assay buffer
T1 sequence (Q07820 172-327): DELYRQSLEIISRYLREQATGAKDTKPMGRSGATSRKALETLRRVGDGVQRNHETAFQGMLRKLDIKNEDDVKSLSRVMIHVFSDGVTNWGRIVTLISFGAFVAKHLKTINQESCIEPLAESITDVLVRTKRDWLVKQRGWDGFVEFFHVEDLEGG
Protocol: (§1) Bak Peptide Binding Assay
(§2) Compound affinity was measured using a fluorescence polarization anisotropy competition assay. Anisotropy measurements were carried out in 384-well, black, flat-bottom plates (Greiner Bio-one, Monroe, N.C., USA). The assay was run using a fluorescein isothiocyanate-labeled BH3 peptide derived from Bak (FITC-AHx-[…] […] H2) (SEQ ID NO: 1) that was purchased from GenScript (Piscataway, N.J.) at >95% purity and used without further purification. 10 nM FITC-Bak peptide and 14 nM recombinant Mcl-1 (residues 172-327) were added to assay buffer (3 mM dithiothreitol, 50 mM NaCl, 20 mM Tris, pH 7.5). For selectivity assays, 40 nM Bcl-2 (residues 1-207^A96T,G110R, Δ35-91, replaced with Bcl-xL35-50) or 4 nM Bcl-xL (residues 1-209, loop 45-86 deleted) were incubated with 10 nM FITC-Bak in assay buffer.
(§3) Compounds are diluted in DMSO in a 10-point, 3-fold serial dilution scheme. 2.5 uL compound is added to 47.5 uL of assay buffer containing FITC-Bak and protein, for a final DMSO concentration of 5% and a top concentration of 20 uM. […] The plate was mixed and incubated for 90 minutes at room temperature. Anisotropy is measured at excitation wavelength 480 nm and emission wavelength 535 nm using an EnVision Multi-label plate reader (PerkinElmer, Wellesley, Mass., USA). Fluorescence anisotropy is plotted against compound concentration to generate an IC50 (inhibitor concentration at which 50% of bound peptide is displaced) by fitting the data to a 4-parameter logistic model using XLFit software (Guildford, Surrey, UK). IC50 is converted to a binding dissociation constant (Ki value) according to the formula of Wang Z. FEBS Lett (1996) 3, 245: Ki=[I]50/([L]50/Kd+[P]0/Kd+1) where [I]50 is the concentration of the free inhibitor at 50% inhibition, [L]50 is the concentration of the free labeled ligand at 50% inhibition, [P]0 is the concentration of the free protein at 0% inhibition, Kd represents the dissociation constant of the FITC peptide probe.

[2] = biological target: T2, Bcl-xL (residues 1-209, loop 45-86 deleted) (Homo sapiens, UniProt Q07817, DEL45-86); assay: biochemical; type: binding; details: Table 3; 10 nM FITC-Bak, 4 nM Bcl-xL; top concentration 20 uM
T2 construct: Bcl-xL (residues 1-209, loop 45-86 deleted)
T2 sequence (Q07817 other isoform, or with tags, fused parts or gaps DEL45-86): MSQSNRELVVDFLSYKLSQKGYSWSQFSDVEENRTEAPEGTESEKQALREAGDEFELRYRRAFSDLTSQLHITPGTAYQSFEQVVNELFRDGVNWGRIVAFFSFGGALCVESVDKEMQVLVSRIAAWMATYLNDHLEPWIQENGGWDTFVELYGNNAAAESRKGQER
Protocol: as §1, §2, §3

[3] = Ki For Inhibition of Mcl-I Protein, Table 2, binned range

Compound | pKi [1, 3] | other results
O=C(O)c1c(CCCOc2cccc3ccccc23)c2cccc3c2n1CCCS3(=O)=O [Example 21, 7-(3-(naphthalen-1-yloxy)propyl)-3,4-dihydro-2H-[1,4]thiazepino[2,3,4-hi]indole-6-carboxylic acid 1,1-dioxide] | ≥ 7.00 | 
Cc1cc(OCCCc2c(C(=O)O)n3c4c(c(Cl)ccc24)OCC3)cc(C)c1Cl [Example 27, 9-chloro-6-(3-(4-chloro-3,5-dimethylphenoxy)propyl)-2,3-dihydro-[1,4]oxazino[2,3,4-hi]indole-5-carboxylic acid] | ≥ 7.00 | pKi [2]: < 4.70; pKi ([1]; Table 3, read-out: Ki Mcl-1): 8.05
O=C(O)c1c(CCOc2cccc3ccccc23)c2cccc3c2n1CCC3 [Example 4, 1-(2-(naphthalen-1-yloxy)ethyl)-5,6-dihydro-4H-pyrrolo[3,2,1-ij]quinoline-2-carboxylic acid] | 5.00 to 6.00 | 
O=C(O)c1c(CCCOc2cccc3ccccc23)c2cccc3c2n1CCCS3 [Example 18, 7-(3-(naphthalen-1-yloxy)propyl)-3,4-dihydro-2H-[1,4]thiazepino[2,3,4-hi]indole-6-carboxylic acid] | 6.52 to 7.00 | 
O=C(O)c1c(CCCOc2ccc(Cl)c3ccccc23)c2cccc3c2n1CCS3 [Example 10, 6-(3-((4-chloronaphthalen-1-yl)oxy)propyl)-2,3-dihydro-[1,4]thiazino[2,3,4-hi]indole-5-carboxylic acid] | 6.52 to 7.00 | pKi [2]: 5.33; pKi ([1]; Table 3, read-out: Ki Mcl-1): 6.70
O=C(O)c1c(CCOc2cccc3ccccc23)c2cccc3c2n1CCO3 [Example 5, 6-(2-(naphthalen-1-yloxy)ethyl)-2,3-dihydro-[1,4]oxazino[2,3,4-hi]indole-5-carboxylic acid] | 5.00 to 6.00 | 
Cc1cc(OCCCc2c(C(=O)O)n3c4c(cccc24)SCC3)cc(C)c1Cl [Example 13, 6-(3-(4-chloro-3,5-dimethylphenoxy)propyl)-2,3-dihydro-[1,4]thiazino[2,3,4-hi]indole-5-carboxylic acid] | ≥ 7.00 | pKi [2]: < 4.70; pKi ([1]; Table 3, read-out: Ki Mcl-1): 7.15
CS(=O)(=O)NC(=O)c1c(CCCOc2cccc3ccccc23)c2cccc3c2n1CCS3 [Example 8, N-(methylsulfonyl)-6-(3-(naphthalen-1-yloxy)propyl)-2,3-dihydro-[1,4]thiazino[2,3,4-hi]indole-5-carboxamide] | 5.00 to 6.00 | 
CS(=O)(=O)NC(=O)c1c(CCCOc2cccc3ccccc23)c2cccc3c2n1CCC3 [Example 15, N-(methylsulfonyl)-1-(3-(naphthalen-1-yloxy)propyl)-5,6-dihydro-4H-pyrrolo[3,2,1-ij]quinoline-2-carboxamide] | 5.00 to 6.00 | 
Cc1cc(OCCCc2c(C(=O)O)n3c4c(cccc24)CCC3)cc(C)c1Cl [Example 16, 1-(3-(4-chloro-3,5-dimethylphenoxy)propyl)-5,6-dihydro-4H-pyrrolo[3,2,1-ij]quinoline-2-carboxylic acid] | 6.52 to 7.00 | 
O=C(O)c1c(CCCOc2cccc3ccccc23)c2cccc3c2n1CCO3 [Example 25, 6-(3-(naphthalen-1-yloxy)propyl)-2,3-dihydro-[1,4]oxazino[2,3,4-hi]indole-5-carboxylic acid] | 6.52 to 7.00 | 
Cc1cc(OCCCc2c(C(=O)O)n3c4c(cccc24)SCC3)ccc1Cl [Example 12, 6-(3-(4-chloro-3-methylphenoxy)propyl)-2,3-dihydro-[1,4]thiazino[2,3,4-hi]indole-5-carboxylic acid] | 6.52 to 7.00 | 
O=C(O)c1c(CCCOc2cccc3ccccc23)c2cccc3c2n1CCS3(=O)=O [Example 22, 6-(3-(naphthalen-1-yloxy)propyl)-2,3-dihydro-[1,4]thiazino[2,3,4-hi]indole-5-carboxylic acid 1,1-dioxide] | ≥ 7.00 | 
O=C(O)c1c(CCOc2cccc3ccccc23)c2cccc3c2n1CCS3 [Example 1, 6-(2-(naphthalen-1-yloxy)ethyl)-2,3-dihydro-[1,4]thiazino[2,3,4-hi]indole-5-carboxylic acid] | 5.00 to 6.00 | 
O=C(O)c1c(CCCOc2cccc3ccccc23)c2cccc3c2n1CCS3 [Example 7, 6-(3-(naphthalen-1-yloxy)propyl)-2,3-dihydro-[1,4]thiazino[2,3,4-hi]indole-5-carboxylic acid] | 6.52 to 7.00 | pKi [2]: < 4.70; pKi ([1]; Ki Mcl-1, Table 3): 6.97
O=C(O)c1c(CCCOc2ccc3c(c2)CCCC3)c2cccc3c2n1CCS3 [Example 11, 6-(3-((5,6,7,8-tetrahydronaphthalen-2-yl)oxy)propyl)-2,3-dihydro-[1,4]thiazino[2,3,4-hi]indole-5-carboxylic acid] | 6.30 to 6.52 | 
Cc1cc(OCCCc2c(C(=O)NS(=O)(=O)c3ccccc3)n3c4c(cccc24)CCC3)cc(C)c1Cl [Example 17, 1-(3-(4-chloro-3,5-dimethylphenoxy)propyl)-N-(phenylsulfonyl)-5,6-dihydro-4H-pyrrolo[3,2,1-ij]quinoline-2-carboxamide] | 6.30 to 6.52 | 
CS(=O)(=O)NC(=O)c1c(CCCOc2cccc3ccccc23)c2cccc3c2n1CCCS3 [Example 19, N-(methylsulfonyl)-7-(3-(naphthalen-1-yloxy)propyl)-3,4-dihydro-2H-[1,4]thiazepino[2,3,4-hi]indole-6-carboxamide] | 6.00 to 6.30 | 
O=C(O)c1c(CCCOc2cccc3ccccc23)c2cccc3c2n1CCC3 [Example 14, 1-(3-(naphthalen-1-yloxy)propyl)-5,6-dihydro-4H-pyrrolo[3,2,1-ij]quinoline-2-carboxylic acid] | 6.30 to 6.52 | 
O=C(O)c1c(CCCOc2cccc3c2CCCC3)c2cccc3c2n1CCS3 [Example 9, 6-(3-((5,6,7,8-tetrahydronaphthalen-1-yl)oxy)propyl)-2,3-dihydro-[1,4]thiazino[2,3,4-hi]indole-5-carboxylic acid] | 6.52 to 7.00 | 
Cc1cc(OCCCc2c(C(=O)O)n3c4c(cccc24)SCCC3)cc(C)c1Cl [Example 23, 7-(3-(4-chloro-3,5-dimethylphenoxy)propyl)-3,4-dihydro-2H-[1,4]thiazepino[2,3,4-hi]indole-6-carboxylic acid] | ≥ 7.00 | pKi [2]: < 4.70; pKi ([1]; Table 3, read-out: Ki Mcl-1): 7.40
Cc1cc(OCCCc2c(C(=O)NS(=O)(=O)c3ccccc3)n3c4c(cccc24)SCCC3)cc(C)c1Cl [Example 24, 7-(3-(4-chloro-3,5-dimethylphenoxy)propyl)-N-(phenylsulfonyl)-3,4-dihydro-2H-[1,4]thiazepino[2,3,4-hi]indole-6-carboxamide] | 6.52 to 7.00 | 
Cc1cc(OCCc2c(C(=O)O)n3c4c(cccc24)SCC3)cc(C)c1Cl [Example 3, 6-(2-(4-chloro-3,5-dimethylphenoxy)ethyl)-2,3-dihydro-[1,4]thiazino[2,3,4-hi]indole-5-carboxylic acid] | 5.00 to 6.00 | 
Cc1cc(OCCCc2c(C(=O)O)n3c4c(c(Cl)ccc24)CCC3)cc(C)c1Cl [Example 28, 7-chloro-1-(3-(4-chloro-3,5-dimethylphenoxy)propyl)-5,6-dihydro-4H-pyrrolo[3,2,1-ij]quinoline-2-carboxylic acid] | ≥ 7.00 | 
O=C(O)c1c(CCCOc2cccc3ccccc23)c2cccc3c2n1CCC[S+]3[O-] (stereo not drawn) [Example 20, 7-(3-(naphthalen-1-yloxy)propyl)-3,4-dihydro-2H-[1,4]thiazepino[2,3,4-hi]indole-6-carboxylic acid 1-oxide] | ≥ 7.00 | pKi [2]: < 4.70
CS(=O)(=O)NC(=O)c1c(CCOc2cccc3ccccc23)c2cccc3c2n1CCS3 [Example 2, N-(methylsulfonyl)-6-(2-(naphthalen-1-yloxy)ethyl)-2,3-dihydro-[1,4]thiazino[2,3,4-hi]indole-5-carboxamide] | 5.00 to 6.00 | 
O=C(NS(=O)(=O)c1ccccc1)c1c(CCOc2cccc3ccccc23)c2cccc3c2n1CCO3 [Example 6, 6-(2-(naphthalen-1-yloxy)ethyl)-N-(phenylsulfonyl)-2,3-dihydro-[1,4]oxazino[2,3,4-hi]indole-5-carboxamide] | 6.00 to 6.30 | 
Cc1cc(OCCCc2c(C(=O)O)n3c4c(cccc24)OCC3)cc(C)c1Cl [Example 26, 6-(3-(4-chloro-3,5-dimethylphenoxy)propyl)-2,3-dihydro-[1,4]oxazino[2,3,4-hi]indole-5-carboxylic acid] | ≥ 7.00 | 
